≈ marks a conversion by molar mass, not a printed value.
How the values were obtained:
Format in all cases: cell-based
B.subtilis = experiment: minimum inhibitory concentration (MIC) in agar, B.subtilis; conditions: Bacillus subtilis
Experimental: (§1) The minimum concentrations of this compound required to inhibit growth of five typical Gram-positive bacteria are tabulated below.
(§2) The minimum inhibitory concentrations (MIC) of the free acid (XIV) required to inhibit the growth of five typical Gram-positive bacteria are tabulated below:
(§3) t-Butyl 3-ethyl-7-(2-thienylacetamido)-3-cephem-4-carboxylate (23 mg) was treated with trifluoracetic acid at room temperature for 1 hour. The excess trifluoroacetic acid was distilled off azeotropically with dry benzene to give the free acid (XVII) as a gum (17 mg) .nu.max (CHCl3) 1770, 1705, 1680 cm^^-1 The minimum inhibitory concentrations of this compound required to inhibit the growth of five typical Gram-positive bacteria are tabulated below:
(§4) The cephem ester (XX) (28 mg) was dissolved in trifluoroacetic acid (0.8 ml) and allowed to stand at room temperature for 30 min.

Staph.aureus Russell = experiment: minimum inhibitory concentration (MIC) in agar, Staph.aureus Russell; conditions: Staphylococcus aureus
Experimental: as §1, §2, §3, §4

Strep.pneumoniae CN33 = experiment: minimum inhibitory concentration (MIC) in agar, Strep.pneumoniae CN33; conditions: Streptococcus pneumoniae
Experimental: as §1, §2, §3, §4

Staph.aureus Oxford = experiment: minimum inhibitory concentration (MIC) in agar, Staph.aureus Oxford; conditions: Staphylococcus aureus
Experimental: as §1, §2, §3, §4

β-haemolytic Strep.CN10 = experiment: minimum inhibitory concentration (MIC) in agar, β-haemolytic Strep.CN10
Experimental: as §1, §2, §3, §4

| SMILES | MIC (B.subtilis) [µg/mL] | MIC (Staph.aureus Russell) [µg/mL] | MIC (Strep.pneumoniae CN33) [µg/mL] | MIC (Staph.aureus Oxford) [µg/mL] | MIC (β-haemolytic Strep.CN10) [µg/mL] |
| --- | --- | --- | --- | --- | --- |
| COC(=O)C1=C(Cc2ccccc2)CS[C@@H]2C(NC(=O)COc3ccccc3)C(=O)N12 (stereo partly shown) [II, Methyl 3-benzyl-7-phenoxyacetamido-3-cephem-4-carboxylate] | 1.95 (≈ 4.45 µM) | 15.6 (≈ 35.6 µM) | 0.98 (≈ 2.23 µM) | 0.98 (≈ 2.23 µM) | 1.95 (≈ 4.45 µM) |
| CCC1=C(C(=O)O)N2C(=O)C(NC(=O)Cc3cccs3)[C@H]2SC1 (stereo partly shown) [XVII, 3-ethyl-7-(2-thienylacetamido)-3-cephem-4-carboxylic acid] | 2.5 (≈ 7.09 µM) | 2.5 (≈ 7.09 µM) | 2.5 (≈ 7.09 µM) | 2.5 (≈ 7.09 µM) | 2.5 (≈ 7.09 µM) |
| O=C(O)CSCC(=O)NC1C(=O)N2C(C(=O)O)=C(Cc3ccc(F)cc3)CSC12 (stereo not shown) [XIV, 3-p-fluorobenzyl-7-carboxymethylthioacetamido-3-cephem-4-carboxylate] | 100 (≈ 227 µM) | 50 (≈ 114 µM) | 25 (≈ 56.8 µM) | 5 (≈ 11.4 µM) | 25 (≈ 56.8 µM) |

These reach a lower MIC (B.subtilis). Values come first.

| MIC (B.subtilis) [µg/mL] | MIC (Staph.aureus Russell) [µg/mL] | MIC (Strep.pneumoniae CN33) [µg/mL] | MIC (Staph.aureus Oxford) [µg/mL] | SMILES | MIC (β-haemolytic Strep.CN10) [µg/mL] |
| --- | --- | --- | --- | --- | --- |
| 0.5 (≈ 1.18 µM) | 10 (≈ 23.7 µM) | 0.25 (≈ 0.592 µM) | 0.25 (≈ 0.592 µM) | O=C(Cc1cccs1)NC1C(=O)N2C(C(=O)O)=C(CC3CCCCO3)CS[C@H]12 (stereo partly shown) [XXII, 3-(2-tetrahydropyranylmethyl)-7-(2-thienylacetamido)-3-cephem-4-carboxylicacid] | 0.25 (≈ 0.592 µM) |
| 0.5 (≈ 1.16 µM) | 10 (≈ 23.1 µM) | 0.25 (≈ 0.578 µM) | 0.25 (≈ 0.578 µM) | O=C(Cc1cccs1)NC1C(=O)N2C(C(=O)O)=C(Cc3ccc(F)cc3)CS[C@H]12 (stereo partly shown) [XII, 3-p-fluorobenzyl-7-(2-thienylacetamido)-3-cephem-4-carboxylic acid] | 0.25 (≈ 0.578 µM) |
| 0.2 (≈ 0.482 µM) | 10 (≈ 24.1 µM) | 0.2 (≈ 0.482 µM) | 0.05 (≈ 0.121 µM) | O=C(Cc1cccs1)NC1C(=O)N2C(C(=O)O)=C(Cc3ccccc3)CSC12 (stereo not shown) [VI] | 0.2 (≈ 0.482 µM) |
| 0.25 (≈ 0.59 µM) | 2.5 (≈ 5.9 µM) | 1 (≈ 2.36 µM) | 0.1 (≈ 0.236 µM) | N[C@@H](C(=O)NC1C(=O)N2C(C(=O)O)=C(Cc3ccccc3)CS[C@H]12)c1ccccc1 (stereo partly drawn) [VII; R = H, 3-Benzyl-7-[D-α-aminophenylacetamido]-3-cephem-4-carboxylic acid] | 0.1 (≈ 0.236 µM) |
| 0.05 (≈ 0.117 µM) | 1.5 (≈ 3.5 µM) | 0.15 (≈ 0.35 µM) | 0.05 (≈ 0.117 µM) | O=C(Cc1cccs1)NC1C(=O)N2C(C(=O)O)=C(CCc3ccccc3)CS[C@H]12 (stereo partly drawn) [XXVI, 3-β-phenylethyl-7-(2-thienylacetamido) -3-cephem-4-carboxylic acid] | 0.02 (≈ 0.0467 µM) |

From patent publication US3939157A, “3-Benzyl-7-substituted acetamido-3-cephem-4-carboxylic acids and halogenated benzyl derivatives” (Beecham Group Limited, priority 1972, dated 1976)
